# Data published in patent US9169509B2, “Topoisomerase 2b as a predictor of susceptibility to anthracycline-induced cardiotoxicity” (Board of Regents, The University of Texas System, priority 2013, dated 2015).
# Experiments:
# Format in all cases: in vivo, mouse
# cardiomyocytes = experiment: RT-qPCR of cardiomyocytes isolated from doxorubicin-treated mice
# Protocol: Isolation of cardiomyocytes from mouse heart was carried out with Langendorff perfusion apparatus according to the standard protocol described above. Total RNA extraction was performed with TRIZOL Reagent (Invitrogen) and purification with RNeasy Mini Kit (QIAGEN) according the manufacturer's protocol. The concentration of RNA obtained was measured using a super-sensitive NanoDrop ND1000 spectrophotometer (Thermo Scientific). Reverse transcription reaction was performed by using the High Capacity RNA-to-cDNA Kit (Applied Biosystem). In brief, cDNA was generated from 1 μg of RNA by RT Enzyme Mix according to the manufacturer's instructions on a PCR thermocycler (S1000TM Thermal Cycler, BIO-RAD, USA). The resulting cDNA was diluted to a final concentration of 50 ng/μl for PCR amplification. Real time quantitative PCR was carried out by using a 7900HT Fast Real-Time PCR System (Applied Biosystems). Mouse TaqMan® Gene primers and probes (FAM, Applied Biosystem), were used in PCR amplification. Mouse GAPDH was used as internal control (VIC®/MGB Probe, Primer Limited, Applied Biosystem). The following TaqMan® Gene primers/probes were used Sdha (Mm01352366_m1), ATP5a1: (Mm00431960_m1), Ndufa3 (Mm01329704_g1), Ppargcla (PGC-1α, Mm01208835_m1), Ppargc1b (PGC-1β, Mm00504720_m1), Esrra (EER, Mm00433143_m1), Trp53inp1 (Mm00458141_m1), Fas: (Mm00433237_m1), Apaf1 (Mm01223702_m1), Bax (Mm00432051_m1), Mdm2 (Mm01233136_m1), and GAPDH: Mouse GAPD (GAPDH) Endogenous Control (VIC®/MGB Probe, Primer Limited). Comparative analyses of each gene were performed using company-provided softwares, SDS2.4 and RQ Manager 1.2.1 (Applied Biosystems). All amplifications were carried out at least in duplicates. The mRNA expression levels of each gene were calculated by using the 2-ΔΔCt (comparative threshold cycle) method, as detailed by the manufacturer (Applied Biosystems).
# heart sections [1] = experiment: Detection of reactive oxygen species (DHE staining) in heart sections
# Description: The hearts were isolated on ice, embedded in OCT, snap frozen in liquid nitrogen, sectioned into 5 μm-thick slices, and ROS generation was detected immediately by using dihydroethidium (DHE). Doxorubicin treatment generated ROS in the hearts of Top2b^+/+ mice, but this was reduced by 70% in Top2b^Δ/Δ mice (FIGS. 5b,c).
# The hearts were perfused with ice-cold PBS and quickly removed. The hearts were embedded in OCT and snap-frozen in liquid nitrogen. Series of 5 μm-thick slices were sectioned from the heart immediately. Tissue sections were then stained with Dihydroethidium (DHE, Invitrogen) for 15 m, followed by staining with DAPI (1 μg/ml, Sigma). Tissue slides were sealed and examined with an Olympus epifluorescence microscope (Model BX51). The numbers of DHE-positive nuclei and the total nuclei were counted in 5 microscopic fields (400×) per section. Five heart sections from each mouse were counted to determine the percentage of the DHE-positive nuclei.
# heart sections [2] = experiment: Masson's Trichrome staining of heart sections (fibrosis)
# Protocol: FIGS. 6a-e: a. Schematic of chronic doxorubicin treatment protocol. All mice received a baseline MRI scan first. Tamoxifen was then administered by gavage at a dose of 25 mg/kg, once a day for 5 consecutive days. […] After the last MRI scan, mice were sacrificed and the hearts were removed and examined for histological changes and Top2b expression. b. RT-qPCR of genes involved in mitochondrial biogenesis. Mice were treated with doxorubicin (5 mg/kg) once a week for 5 weeks. Cardiomyocytes were isolated from the heart 72 hr after the last dose. Total RNA was extracted for RTqPCR analysis of genes important for the function and structure of the mitochondria. For each mRNA shown relative expression is graphed for Top2b^+/+ Control, Top2b^+/+ Dox, Top2b^Δ/Δ Control, and Top2b^Δ/Δ Dox (from left to right). One way ANOVA was used to determine statistical significance (p<0.05). Error bars indicated STDEV. The asterisks indicated a significant difference (p<0.05). c. ROS production and quantitation. Representative images of heart sections stained with Dihydroethidium (DHE), which, after oxidation, intercalated into DNA and stained the nuclei red. Mice were treated with doxorubicin (5 mg/kg) once a week for 5 weeks. […] The numbers of DHE-positive and total nuclei were counted as described and the percentage of DHE-positive nuclei was determined. […]
# [3] = Top2b+/+ cardiomyocytes, 16 hrs after doxorubicin 25 mg/kg i.p.
# [4] = Top2b+/+ hearts, chronic doxorubicin 5 mg/kg once a week for 5 weeks
smiles,measurement,setting,value
COc1cccc2c1C(=O)c1c(O)c3c(c(O)c1C2=O)C[C@@](O)(C(=O)CO)C[C@@H]3O[C@H]1C[C@H](N)[C@H](O)[C@H](C)O1 [doxorubicin],"Transcript of Apaf1, Bax, and Fas (apoptosis pathway genes)",cardiomyocytes; [3],increases
same,Up-regulation of the transcript encoding p53DINP1 (TP53INP1),cardiomyocytes; [3],200 fold
same,Genes involved in mitochondrial biogenesis (RT-qPCR),cardiomyocytes; [4],Reduction of genes involved in mitochondrial biogenesis
same,"Transcripts of Ndufa3, Sdha and Atp5a (electron transport chain)","cardiomyocytes; doxorubicin treated Top2b+/+ cardiomyocytes, 72 h, much less so in Top2bΔ/Δ",decreased
same,Erra transcript,"cardiomyocytes; doxorubicin-treated wild type cardiomyocytes, 72 h, not in Top2b-deleted",down-regulated
same,Reduction of doxorubicin-generated ROS in Top2bΔ/Δ mice versus Top2b+/+ mice,heart sections [1]; 16 hrs after doxorubicin 25 mg/kg,70%
same,ROS generation (DHE),heart sections [1]; [4],generation of ROS
same,ROS generation in the hearts (DHE-positive nuclei),"heart sections [1]; Top2b+/+ mice, 16 hrs after doxorubicin 25 mg/kg",generated ROS
same,Fibrosis in the hearts (Masson's Trichrome),"heart sections [2]; Top2b+/+ mice, doxorubicin 5 mg/kg once a week for 5 weeks, hearts 72 h after last dose",patchy fibrosis
same,"Fibrosis and other pathological changes after chronic treatment, relative to Top2b+/+ hearts","heart sections [2]; Top2bΔ/Δ hearts, chronic doxorubicin 5 mg/kg once a week for 5 weeks",much less so
